Entries after “also recorded” stand apart in the source; their conditions may differ.
Tested on: NKT cells
Assay: NKT cells in blood, spleen and liver of vaccinated C57BL/6 mice (flow cytometry)
Format: in vivo
Conditions: vs untreated mice
Protocol: B16-F10 mouse melanoma cell line in C57/BL6 mice provides a syngeneic model of spontaneous highly metastatic tumor. As shown in the diagram of FIG. 13, three groups of mice were injected with B16 melanoma cell lines. Only one group received the GD3 based vaccine, the other groups were a control group and α-galactosylceramide (α-GalCer), a potent and specific activator of mouse and human iNKT cells. These C57BL/6 mice were vaccinated weekly for 4 weeks followed by a week of rest (see FIG. 13). Mice where then euthanized to collect, blood, liver, and spleen for evaluation of NKT cells. Liver lymphocytes were collected by making mono-cellular suspension of liver obtained after enzymatic digestion. Collected lymphocytes were stained for CD3, CD4, TCRβ, NK1.1, CD49b and dead cells. In these experiments untreated and α-galactosylceramide (α-GalCer) treated mice were used as controls. Tumor size and mass was only recorded.
One week post last vaccination, mice were euthanized as per IACUC protocol and Natural Killer T cells were evaluated in blood, spleen, and liver by staining the isolated cells with anti-CD45, CD3, CD4, TCRb, CD49b and NK1.1 antibodies. The stained cells were analyzed on BD Fortessa and FlowJo 10 v.

CCCCCCCCCCCCCCCCCCCCCCCCCC(=O)N[C@@H](CO[C@H]1O[C@H](CO)[C@H](O)[C@H](O)[C@H]1O)[C@H](O)[C@H](O)CCCCCCCCCCCCCC [α-GalCer, α-galactosylceramide]
NKT cells in the liver (liver, weekly x4, one week after last vaccination): increased; also recorded: accumulation | NKT cells in spleen and blood (spleen and blood): no discernable differences

Source: patent publication US20220133872A1, “A MONOPHOSPHORYL LIPID-A LIPOSOME BASED CANCER VACCINE” (University of Florida Research Foundation, Inc., priority 2019, published 2022)
